{"source": "patent US6342508B1", "about": "“N-hydroxy-2-(Alkyl,Aryl or Heteroaryl sulfanyl, sulfinyl or sulfonyl) 3-substituted alkyl, aryl or heteroarylamides as matrix metalloproteinase inhibitors” (American Cyanamid Company, priority 1997, dated 2002)", "key": {"TACE": {"molecular_target": "T1, TACE (Homo sapiens, UniProt P78536)", "T1 construct": "purchased Immunex", "T1 sequence (P78536 215-824)": "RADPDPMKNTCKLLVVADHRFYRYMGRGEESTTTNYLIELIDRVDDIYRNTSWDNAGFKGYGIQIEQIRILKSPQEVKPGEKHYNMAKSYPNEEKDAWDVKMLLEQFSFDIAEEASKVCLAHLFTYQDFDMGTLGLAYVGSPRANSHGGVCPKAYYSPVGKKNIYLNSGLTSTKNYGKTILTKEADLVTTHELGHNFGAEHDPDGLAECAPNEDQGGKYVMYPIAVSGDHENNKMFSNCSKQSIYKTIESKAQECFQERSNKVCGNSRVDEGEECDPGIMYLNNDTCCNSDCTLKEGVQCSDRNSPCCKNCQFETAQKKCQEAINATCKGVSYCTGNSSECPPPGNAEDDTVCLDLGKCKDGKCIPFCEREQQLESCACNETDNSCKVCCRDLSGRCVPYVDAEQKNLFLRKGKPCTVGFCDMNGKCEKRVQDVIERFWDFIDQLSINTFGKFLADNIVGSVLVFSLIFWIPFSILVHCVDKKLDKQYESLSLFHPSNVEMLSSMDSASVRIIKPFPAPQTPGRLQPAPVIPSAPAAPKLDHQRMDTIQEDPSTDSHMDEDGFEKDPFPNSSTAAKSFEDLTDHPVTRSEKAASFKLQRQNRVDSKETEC", "experiment": "Procedure for Measuring TACE Inhibition (fluorescent peptidyl substrate)", "type": "biochemical", "description": "Using 96-well black microtiter plates, each well recieves a solution composed of 10 μL TACE (Immunex, final concentration 1 μg/mL), 70 μL Tris buffer, pH 7.4 containing 10% glycerol (final concentration 10 mM), and 10 μL of test compound solution in DMSO (final concentration, DMSO concentration <1%) and incubated for 10 minutes at room temperature. The reaction is initiated by addition of a fluorescent peptidyl substrate (final concentration 100 μM) to each well and then shaking on a shaker for 5 sec. The reaction is read (excitation 340 nm, emission 420 nm) for 10 min. and the increase in fluorescence over time is plotted as a linear line. The slope of the line is calculated and represents the reaction rate. […] The mean (x±sem) of the control rate is calculated and compared for statistical significance (p<0.05) with drug-treated rates using Dunnett's multiple comparison test."}}, "note": "Where two headings read alike, the source gives them in different places."}
{"molecule": "3-(1-Hydroxycarbamoyl-heptylsulfinyl)-benzoicacid hydroxyamide [Example 188]", "values": [{"measurement": "TACE % inhibition at 1 mM", "setting": "TACE", "value": 16.2, "unit": "%"}]}
{"molecule": "COc1ccc(S(=O)(=O)C(CC=C(C)C)(Cc2ccc(OCCN3CCOCC3)cc2)C(=O)NO)cc1", "note": "(stereo not drawn) [Example 24, 2-(4-Methoxy-benzenesulfonyl)-5-methyl-2-[4-(2-morpholin-4-yl-ethoxy)-benzyl]-hex-4-enoic acid hydroxyamide]", "values": [{"measurement": "IC50", "setting": "TACE; read-out: TACE IC 50", "value": 47.5, "unit": "nM"}]}
{"molecule": "COc1ccc(S(=O)(=O)C(C/C=C(\\C)CCC=C(C)C)(Cc2ccc(OCCN3CCOCC3)cc2)C(=O)NO)cc1", "note": "(stereo not drawn) [Example 26, (4E)-2-(4-Methoxy-benzenesulfonyl)-5,9 dimethyl-2-(4-(2-morpholin-4-yl-ethoxy)-benzyl]-deca-4,8-dienoic acid hydroxyamide]", "values": [{"measurement": "IC50", "setting": "TACE; read-out: TACE IC 50", "value": 34.6, "unit": "nM"}]}
{"molecule": "CCCCCCC(Sc1nccn1C)C(=O)NO", "note": "(stereo not drawn) [Example 39, 2-(1-methyl-1H-imidazol-2-ylsulfanyl)-octanoic acid hydroxyamide]", "values": [{"measurement": "melting point", "value": 125, "unit": "°C"}, {"measurement": "IC50", "setting": "TACE; read-out: TACE IC 50", "value": 69.4, "unit": "nM"}]}
{"molecule": "CC(C)=CCC(CC=C(C)C)(C(=O)NO)S(=O)(=O)c1ccc(C)cc1", "note": "[Example 42, 5-Methyl-2-(3-methyl-but-2-enyl)-2-(toluene-4-sulfonyl)-hex-4-enoic acid hydroxyamide]", "values": [{"measurement": "melting point", "value": "108 to 110", "unit": "°C"}, {"measurement": "IC50", "setting": "TACE; read-out: TACE IC 50", "value": 36.5, "unit": "nM"}]}
{"molecule": "C#CCC(CC#C)(C(=O)NO)S(=O)(=O)c1ccc(OC)cc1", "note": "[Example 73, 2-(4-Methoxy-benzenesulfonyl)-2-prop-2-ynyl-pent-4-ynoic acid hydroxyamide]", "values": [{"measurement": "melting point", "value": 156, "unit": "°C"}]}
{"molecule": "C#CCC(Cc1cccnc1)(C(=O)NO)S(=O)(=O)c1ccc(OC)cc1", "note": "(stereo not drawn) [Example 75, 2-(4-Methoxy-benzenesulfonyl)-2-pyridin-3-ylmethyl-pent-4-ynoic acid hydroxyamide]", "values": [{"measurement": "melting point", "value": "119 to 121", "unit": "°C"}]}
{"molecule": "CC#CCC(CC#CC)(C(=O)NO)S(=O)(=O)c1ccc(F)cc1", "note": "[Example 78, 2-(4-Fluoro-benzenesulfonyl)-2-but-2-ynyl-hex-4-ynoic acid hydroxyamide]", "values": [{"measurement": "melting point", "value": "161 to 163", "unit": "°C"}]}
{"molecule": "COc1ccc(S(=O)(=O)C(CC=C(C)C)(CC=C(C)C)C(=O)NO)cc1", "note": "[Example 79, 2-(4-Methoxy-benzenesulfonyl)-5-methyl-2-(3-methyl-but-2-enyl)-hex-4-enoic acid hydroxyamide]", "values": [{"measurement": "melting point", "value": "93 to 96", "unit": "°C"}]}
{"molecule": "CCCCCC(Sc1ccc(OC)cc1)C(=O)NO", "note": "(stereo not drawn) [Example 80, 2-(4methoxy-phenylsulfanyl)-heptanoic acid hydroxyamide]", "values": [{"measurement": "melting point", "value": "90 to 95", "unit": "°C"}]}
{"molecule": "COc1ccc(S(=O)(=O)C2(C(=O)NO)CCN(Cc3cccc(OC)c3)CC2)cc1", "note": "[Example 84, 4-(4-methoxy-benzenesulfonyl)-1-(3-methoxy-benzyl)-piperidine-4-carboxylic acid hydroxyamide]", "values": [{"measurement": "melting point", "value": 130, "unit": "°C"}]}
{"molecule": "COc1ccc(S(=O)(=O)C2(C(=O)NO)CCN(Cc3ccc(Cl)c(Cl)c3)CC2)cc1", "note": "[Example 85, 1-(3,4-dichlorobenzyl)-4-(4-methoxy-benzenesulfonyl)-piperidine-4-carboxylic acid hydroxamide]", "values": [{"measurement": "melting point", "value": "192 to 195", "unit": "°C"}]}
{"molecule": "COc1ccc(S(=O)(=O)C2(C(=O)NO)CCN(Cc3ccc(C)cc3)CC2)cc1", "note": "[Example 86, 4-(4-methoxy-benzenesulfonyl)-1-(4-methylbenzyl)-piperidine-4-carboxylic acid hydroxamide]", "values": [{"measurement": "melting point", "value": "176 to 177", "unit": "°C"}]}
{"molecule": "COc1ccc(S(=O)(=O)C2(C(=O)NO)CCN(Cc3ccc(Br)cc3)CC2)cc1", "note": "[Example 90, 1-(4Bromo-benzyl)-4-(4-methoxy-benzenesulfonyl)-piperidine-4-carboxylic acid hydroxyamide]", "values": [{"measurement": "melting point", "value": 180, "unit": "°C"}, {"measurement": "IC50", "setting": "TACE; read-out: TACE IC 50", "value": 71.9, "unit": "nM"}]}
{"molecule": "COc1ccc(S(=O)(=O)C2(C(=O)NO)CCN(CCCc3ccccc3)CC2)cc1", "note": "[Example 91, 4-(4-methoxy-benzenesulfonyl)-1-(3-phenyl-propyl)-piperidine-4-carboxylic acid hydroxyamide]", "values": [{"measurement": "melting point", "value": 143, "unit": "°C"}]}
{"molecule": "CCCCN1CCC(C(=O)NO)(S(=O)(=O)c2ccc(OC)cc2)CC1", "note": "[Example 93, 1-Butyl-4-(4-methoxy-benzenesulfonyl)-piperidine-4-carboxylic acid hydroxyamide]", "values": [{"measurement": "melting point", "value": 75, "unit": "°C"}]}
{"molecule": "CCN1CCC(C(=O)NO)(S(=O)(=O)c2ccc(OC)cc2)CC1", "note": "[Example 95, 1-Ethyl-4-(4-methoxy-benzenesulfonyl)-piperidine-4-carboxylic acid hydroxyamide]", "values": [{"measurement": "melting point", "value": 85, "unit": "°C"}]}
{"molecule": "COc1ccc(S(=O)(=O)C2(C(=O)NO)CCN(C)CC2)cc1", "note": "[Example 97, 1-Methyl-4-(4-methoxy-benzenesulfonyl)-piperidine-4-carboxylic acid hydroxyamide]", "values": [{"measurement": "melting point", "value": 89, "unit": "°C"}]}
{"molecule": "CCCCOc1ccc(S(=O)(=O)C2(C(=O)NO)CCN(Cc3ccccc3)CC2)cc1", "note": "[Example 98, 1-Benzyl-4-(4-butoxy-benzenesulfonyl)-piperidine-4-carboxylic acid hydroxyamide]", "values": [{"measurement": "melting point", "value": 144, "unit": "°C"}]}
{"molecule": "CCCCOc1ccc(S(=O)(=O)C2(C(=O)NO)CCN(Cc3ccc(F)cc3)CC2)cc1", "note": "[Example 100, 1-(4-Fluoro-benzyl)-4-(4-butoxy-benzenesulfonyl)-piperidine-4-carboxylic acid hydroxyamide]", "values": [{"measurement": "melting point", "value": 112, "unit": "°C"}]}
{"molecule": "COc1ccc(S(=O)(=O)C2(C(=O)NO)CCN(CCCOc3ccccc3)CC2)cc1", "note": "[Example 105, 4-(4-Methoxy-benzenesulfonyl)-1-(3-phenoxy-propyl)-piperidine-4-carboxylic acid hydroxyamide]", "values": [{"measurement": "melting point", "value": 101, "unit": "°C"}]}
{"molecule": "CCCCOc1ccc(S(=O)(=O)C2(C(=O)NO)CCN(CCCOc3ccccc3)CC2)cc1", "note": "[Example 106, 4-(4-n-Butoxy-benzenesulfonyl)-1-(3-phenoxy-propyl)-piperidine-4-carboxylic acid hydroxyamide]", "values": [{"measurement": "melting point", "value": 84, "unit": "°C"}]}
{"molecule": "CCCCCCC(Sc1ccc(OCCCC)cc1)C(=O)NO", "note": "(stereo not drawn) [Example 200, 2-(4-Butoxy-benzenesulfanyl)-octanoic acid hydroxyamide]", "values": [{"measurement": "TACE % inhibition at 1 mM", "setting": "TACE", "value": 37.9, "unit": "%"}]}
{"molecule": "CCCCCCC(Sc1ccc(OCCN2CCNCC2)cc1)C(=O)NO", "note": "(stereo not drawn) [Example 201, 2-[4-(2-Piperazine-1-yl-ethoxy)-benzenesulfanyl]-octanoic acid hydroxyamide]", "values": [{"measurement": "TACE % inhibition at 1 mM", "setting": "TACE", "value": 50.9, "unit": "%"}]}
{"molecule": "CCCCCCC(Sc1ccc(NS(=O)(=O)CC)cc1)C(=O)NO", "note": "(stereo not drawn) [Example 234, Ethanesulfonic acid 4(1-hydroxycarbamoyl-heptylsulfanyl)-hydroxyamide]", "values": [{"measurement": "TACE % inhibition at 1 mM", "setting": "TACE", "value": 18.4, "unit": "%"}]}
{"molecule": "CCCCCCC(C(=O)NO)[S+]([O-])c1ccc(NS(=O)(=O)c2cc(Cl)sc2Cl)cc1", "note": "(stereo not drawn) [Example 236, 2,5-Dichloro-thiophene-3-sulfonic acid 4-(1-hydroxycarbamoyl-heptylsulfinyl)-hydroxyamide]", "values": [{"measurement": "TACE % inhibition at 1 mM", "setting": "TACE", "value": 35, "unit": "%"}]}
{"molecule": "CCCCCCC(C(=O)NO)S(=O)(=O)c1ccc(OS(=O)(=O)c2ccccc2[N+](=O)[O-])cc1", "note": "(stereo not drawn) [Example 238, 2-Nitro-benzenesulfonic acid 4-(1-hydroxycarbamoyl-heptylsulfonyl)-hydroxyamide]", "values": [{"measurement": "IC50", "setting": "TACE; solid phase compounds table", "value": 930, "unit": "nM"}]}
{"molecule": "(1-Hydroxycarbamoyl-propane-1-sulfanyl)-propionic acid hydroxyamide [Example 122]", "values": [{"measurement": "TACE % inhibition at 1 mM", "setting": "TACE", "value": 3.1, "unit": "%"}]}
{"molecule": "(1-Hydroxycarbamoyl-propane-1-sulfinyl)-acetic acid hydroxy amide [Example 121]", "values": [{"measurement": "TACE % inhibition at 1 mM", "setting": "TACE", "value": 6.1, "unit": "%"}]}
{"molecule": "(1-Hydroxycarbamoyl-propane-1-sulfonyl)-acetic acid hydroxyamide [Example 120]", "values": [{"measurement": "TACE % inhibition at 1 mM", "setting": "TACE", "value": 19.9, "unit": "%"}]}
